Test results published in ChEMBL document CHEMBL4414591, “Isolation and Total Synthesis of Mabuniamide, a Lipopeptide from an Okeania sp. Marine Cyanobacterium” (J Nat Prod, 2019).

Tests used:
Plasmodium falciparum = assay: Antiprotozoal activity against erythrocytic stage of Plasmodium falciparum 3D7 incubated for 72 hrs by lactate dehydrogenase assay; assay type: functional, organism-based; conditions: 3D7, 72 h
L6 [1] = assay: Cytotoxicity against rat L6 cells assessed as decrease in cell viability at 10 to 40 uM incubated for 22 hrs by MTT assay; assay type: cell-based; conditions: l6, 22 h
L6 [2] = assay: Induction of glucose uptake in rat L6 cells incubated for 22 hrs in presence of glucose by microplate reader assay; assay type: functional, cell-based

Row | Compound | IC50 (Plasmodium falciparum) | Activity (L6 [1]) | Activity (L6 [2])
1 | CCCC(=O)N(C)[C@@H](C)C(=O)N1CCC[C@H]1C(=O)N(C)[C@H](Cc1ccccc1)C(=O)N[C@@H](CC(C)C)C(=O)N(C)[C@@H](C(=O)N[C@H](C(=O)NCC(=O)N(C)[C@@H](Cc1ccccc1)C(=O)N1CCC[C@H]1C(=O)OC)C(C)C)C(C)C | 2800 nM | – | –
2 | CCCC(=O)N(C)[C@@H](C)C(=O)N1CCC[C@H]1C(=O)N(C)[C@@H](Cc1ccccc1)C(=O)N[C@@H](CC(C)C)C(=O)N(C)[C@@H](C(=O)N[C@H](C(=O)NCC(=O)N(C)[C@H](Cc1ccccc1)C(=O)N1CCC[C@H]1C(=O)OC)C(C)C)C(C)C (stereo in doubt; form 1) [listing 1 of 2 here] | 1400 nM | Non-Toxic | –
3 | CCCC(=O)N(C)[C@@H](C)C(=O)N1CCC[C@H]1C(=O)N(C)[C@@H](Cc1ccccc1)C(=O)N[C@@H](CC(C)C)C(=O)N(C)[C@@H](C(=O)N[C@H](C(=O)NCC(=O)N(C)[C@H](Cc1ccccc1)C(=O)N1CCC[C@H]1C(=O)OC)C(C)C)C(C)C (stereo in doubt; form 1) [listing 2 of 2 here] | – | – | Dose-dependent effect
4 | CCCC(=O)N(C)[C@@H](C)C(=O)N1CCC[C@H]1C(=O)N(C)[C@@H](Cc1ccccc1)C(=O)N[C@@H](CC(C)C)C(=O)N(C)[C@@H](C(=O)N[C@H](C(=O)NCC(=O)N(C)[C@H](Cc1ccccc1)C(=O)N1CCC[C@H]1C(=O)OC)C(C)C)C(C)C (stereo in doubt; form 2) | – | – | Dose-dependent effect
